# The supplement of paper PMC10307832
# What was measured:
# Experiment in all cases: relative viability (nuclei count vs DMSO), 5 days (fraction); higher = more cells survive
# CAP-232 + Palbociclib = compound: C[C@H]([C@@H](C(=O)N)NC(=O)[C@@H]1CSSC[C@@H](C(=O)N[C@H](C(=O)N[C@@H](C(=O)N[C@H](C(=O)N1)CCCCN)CC2=CNC3=CC=CC=C32)CC4=CC=C(C=C4)O)NC(=O)[C@@H](CC5=CC=CC=C5)N)O [CAP-232] + CC(=O)c1c(C)c2cnc(Nc3ccc(N4CCNCC4)cn3)nc2n(C2CCCC2)c1=O [Palbociclib] (partner 0.5 µM)
# In short: (§1)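 Relative viability equals treated-well nuclei counts divided by vehicle-well nuclei counts. Counts came from 4× images of lung cancer cell lines grown in 1536-well plates for 5 days after pin-tool dosing on the day after seeding. Dosing used one drug alone or a fixed anchor-drug dose plus five library-drug doses (not always all listed) in √10 steps, and values are medians of duplicate plates.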
# CAP-232 + Bortezomib = compound: C[C@H]([C@@H](C(=O)N)NC(=O)[C@@H]1CSSC[C@@H](C(=O)N[C@H](C(=O)N[C@@H](C(=O)N[C@H](C(=O)N1)CCCCN)CC2=CNC3=CC=CC=C32)CC4=CC=C(C=C4)O)NC(=O)[C@@H](CC5=CC=CC=C5)N)O [CAP-232] + CC(C)C[C@H](NC(=O)[C@H](Cc1ccccc1)NC(=O)c1cnccn1)B(O)O [Bortezomib] (partner 0.002 µM)
# In short: as §1
# CAP-232 + Lapatinib = compound: C[C@H]([C@@H](C(=O)N)NC(=O)[C@@H]1CSSC[C@@H](C(=O)N[C@H](C(=O)N[C@@H](C(=O)N[C@H](C(=O)N1)CCCCN)CC2=CNC3=CC=CC=C32)CC4=CC=C(C=C4)O)NC(=O)[C@@H](CC5=CC=CC=C5)N)O [CAP-232] + CS(=O)(=O)CCNCc1ccc(-c2ccc3ncnc(Nc4ccc(OCc5cccc(F)c5)c(Cl)c4)c3c2)o1 [Lapatinib] (partner 2 µM)
# In short: as §1
# CAP-232 + Pictilisib = compound: C[C@H]([C@@H](C(=O)N)NC(=O)[C@@H]1CSSC[C@@H](C(=O)N[C@H](C(=O)N[C@@H](C(=O)N[C@H](C(=O)N1)CCCCN)CC2=CNC3=CC=CC=C32)CC4=CC=C(C=C4)O)NC(=O)[C@@H](CC5=CC=CC=C5)N)O [CAP-232] + CS(=O)(=O)N1CCN(Cc2cc3nc(-c4cccc5[nH]ncc45)nc(N4CCOCC4)c3s2)CC1 [Pictilisib] (partner 1 µM)
# In short: as §1
# CAP-232 + Pemetrexed = compound: C[C@H]([C@@H](C(=O)N)NC(=O)[C@@H]1CSSC[C@@H](C(=O)N[C@H](C(=O)N[C@@H](C(=O)N[C@H](C(=O)N1)CCCCN)CC2=CNC3=CC=CC=C32)CC4=CC=C(C=C4)O)NC(=O)[C@@H](CC5=CC=CC=C5)N)O [CAP-232] + Nc1nc2[nH]cc(CCc3ccc(C(=O)N[C@@H](CCC(=O)O)C(=O)O)cc3)c2c(=O)[nH]1 [Pemetrexed] (partner 0.2 µM)
# In short: as §1
Cell Line,relative viability (CAP-232 + Palbociclib; first compound 0.4 µM),relative viability (CAP-232 + Palbociclib; first compound 1.265 µM),relative viability (CAP-232 + Palbociclib; first compound 4 µM),relative viability (CAP-232 + Palbociclib; first compound 12.65 µM),relative viability (CAP-232 + Bortezomib; first compound 0.4 µM),relative viability (CAP-232 + Bortezomib; first compound 1.265 µM),relative viability (CAP-232 + Bortezomib; first compound 4 µM),relative viability (CAP-232 + Bortezomib; first compound 12.65 µM),relative viability (CAP-232 + Lapatinib; first compound 0.4 µM),relative viability (CAP-232 + Lapatinib; first compound 1.265 µM),relative viability (CAP-232 + Lapatinib; first compound 4 µM),relative viability (CAP-232 + Lapatinib; first compound 12.65 µM),relative viability (CAP-232 + Pictilisib; first compound 0.4 µM),relative viability (CAP-232 + Pictilisib; first compound 1.265 µM),relative viability (CAP-232 + Pictilisib; first compound 4 µM),relative viability (CAP-232 + Pictilisib; first compound 12.65 µM),relative viability (CAP-232 + Pemetrexed; first compound 0.4 µM),relative viability (CAP-232 + Pemetrexed; first compound 1.265 µM),relative viability (CAP-232 + Pemetrexed; first compound 4 µM),relative viability (CAP-232 + Pemetrexed; first compound 12.65 µM)
NCI-H23,0.437,0.478,0.523,0.567,1.15,1.03,1.06,0.953,0.949,1.03,1.07,0.828,0.405,0.491,0.504,0.462,0.686,0.492,0.746,0.623
NCI-H322M,0.494,0.427,0.446,0.508,1.53,1.2,1.14,1.28,0.558,0.492,0.69,0.589,0.54,0.556,0.519,0.487,0.621,0.645,0.599,0.788
NCI-H460,0.246,0.148,0.155,0.0823,1.49,1.17,1.22,0.812,1.11,1.02,1.62,0.773,0.328,0.306,0.433,0.349,0.0632,0.0566,0.0556,0.0558
NCI-H520,0.241,0.224,0.249,0.234,0.71,0.508,0.611,0.438,0.961,0.858,0.965,0.684,0.379,0.315,0.314,0.25,0.581,0.651,0.673,0.634
NCI-H647,0.34,0.358,0.404,0.284,0.938,0.807,0.931,0.562,1.07,1.14,1.39,0.469,0.431,0.354,0.482,0.365,0.153,0.184,0.182,0.158
NCI-H650,0.358,0.306,0.271,0.285,0.999,0.754,0.792,0.769,1.17,0.879,0.966,0.958,0.84,0.821,1.06,0.564,0.869,0.786,0.799,0.932
NCI-H661,0.415,0.403,0.433,0.35,0.658,0.809,0.733,0.851,0.496,0.592,0.465,0.344,0.402,0.377,0.416,0.389,0.885,0.872,0.98,0.827
